Test results reported in publication PMC7323874, “Vancomycin Resistance Is Overcome by Conjugation of Polycationic Peptides” (Angewandte Chemie (International Ed. in English), 2020).

Columns and labels:
[1] = tested on: Staphylococcus aureus NCTC 10442; assay: Blocking experiments with Nα,Nε-diacetyl-Lys-D-Ala-D-Ala in microdilution; format: cell-based; conditions: at least 100-fold excess of Nα,Nε-Diacetyl-Lys-D-Ala-D-Ala, pre-incubation minimum 1 hour at room temperature
Description: Antimicrobial testing – Microdilution
Antimicrobial testing was performed according to CLSI and EUCAST guidelines in microdilution.8-10 Therefore, all tested substances as well as controls were dissolved in water in different concentrations and serially diluted in MHB II (cation adjusted) on the 96-well plate. A logarithmic growing, overnight culture of the respective bacterial strain was used and adjusted to a McFarland corresponding to 1 × 10^8 cfu/ml. Afterwards the bacterial suspension was diluted to 1 ×10^6 cfu/ml and loaded on the 96-well polypropylene plates, resulting in a final bacterial concentration of 5 × 10^5 cfu/ml. After an incubation at 35 ± 1 °C for 18-20 hours (re-controlled after 24 hours) the MIC was determined as the lowest concentration without visible growth as described previously.11 For direct comparison of the tested substances, all results were calculated in mg/ml and mol/ml afterwards.
For blocking experiments with NΑ,NΕ-DIACETYL-LYS-D-ALA-D-ALA the tested substances were incubated directly on the dilution plate with at least 100-fold excess of Nα,Nε-Diacetyl-Lys-D-Ala-D-Ala for a minimum of 1 hour at room temperature. Afterwards, the procedure was performed as described above. As further control substance, the glycopeptide antibiotic teicoplanin was evaluated. […] Resistance development in S. aureus was determined by passaging bacteria in increasing amounts of vancomycin, FU002 or, as control, fusidic acid. In principle, tubes with twofold dilutions of the compounds in 1 ml Muller Hinton broth were inoculated 1:100 with bacterial suspension. The tubes were then incubated for 24 h at 37 °C under shaking. After each passage, the tube with the highest compound concentration showing bacterial growth was used to inoculate the tubes of the next passage (1:100). The tube with the lowest compound concentration showing no growth was defined as the passage MIC. […]
For the validation of possible side effects provoked by the conjugates, the cytotoxic effect of the lead candidate FU002 on human cells was assessed in a colorimetric viability assay. […]

[2] = Molecular imaging (PET, scintigraphy) and biodistribution of radiolabeled compounds; format: in vivo, female Wistar rats; conditions: for scintigraphy, distribution and excretion: i.v.
Description: Biodistribution and pharmacokinetic studies
The biodistribution and pharmacokinetic studies were performed with radiolabeled (124I/125I) compounds. For this radiolabeling strategy, a D-tyrosine-modified derivative was synthesized, which enabled the […] substitution. The D-tyrosine was located at the N-terminus of the respective peptide. Vancomycin was radiolabeled without any further structural modification. For radiolabeling, a 1 mM stock solution of phosphate buffer/dimethyl sulfoxide was prepared as described previously by Uhl et al.12 The required amount of radioactive iodine-124 (124I) or rather iodine-125 (125I) was added to a mixture of 25 µl of the stock solution and 25 µl of a phosphate buffer (0.25 mM; pH 7.5). Radiolabeling was performed using the chloramine T method as previously described by Crim et al.13 The labeled compound was purified by semi-preparative HPLC. Analysis was done by radio-HPLC (Agilent 1100 series) using a Chromolith® Performance RP-18e, 100–3 mm column applying a linear gradient of 0.1% TFA in water (eluent A) to 0.1% TFA in acetonitrile (eluent B) within 5 min; flow rate 2 ml/min; UV absorbance λ = 214 nm; γ-detection. The animal trials were approved by the Animal Care and Use committees at the Regierungspräsidium Karlsruhe, Germany. Adult, female, Wistar rats (200 – 250 g) were purchased from Janvier Labs (Le Genest-Saint-Isle, France). The animals were anaesthetized by isoflurane inhalation and appropriate amounts of the 124I/125I labelled peptides, dissolved in 100 µl of 0.9% NaCl were injected into the tail vein. For PET-imaging, an Inveon small animal PET scanner (Siemens) was used. Therefore, the animals were sacrificed 10 min or 60 min after injection of the radiolabeled compound and images were taken afterwards. The scintigraphic images were obtained using a γ-camera (Gamma Imager, Biospace, France). Cumulative images from 0–10 min, 60–70 min and 120–130 min after injection, were taken. For the biodistribution studies, the animals were sacrificed at certain time points, the organs were removed and weighed and the radioactivity of each sample was measured using a Cobra Auto γ-Counter, (Packard Bioscience, USA) in comparison with standards. The tissue-associated activity was related to the total injected dose (ID) and expressed as a percentage of the total injected dose per gram of tissue (%ID/g).
In vivo infection experiments
Animal studies were approved by the local government of Lower Franconia, Germany (approval number 55.2-2532-2-57) and performed in strict accordance with the guidelines for animal care and experimentation of German Animal Protection Law and the DIRECTIVE […]
For the in vivo experiments, we applied S. aureus strain USA300 LAC* lux, which was constructed by transducing the luxABCDE operon from S. aureus Xen29 (PerkinElmer, Waltham, MA, USA) with phage φ11 into S. aureus LAC* (AH2163).14 Overnight cultures of S. aureus USA300 LAC* lux in BHI medium were diluted to a final OD600 nm of 0.05 in 50 ml fresh BHI medium and grown for 3.5 hours at 37 °C. After centrifugation, the cell pellet was resuspended in BHI with 20 % glycerol, aliquoted and stored at -80 °C. For the generation of in vivo infection inocula, aliquots were thawed and washed twice with PBS. The desired bacterial concentration (5 x 10^7 CFU/100 µl) was then adjusted based on the respective OD600 nm values. A sample of the infection inoculum was plated on TSB agar plates in order to control the infection dose.
Female Balb/c mice (6 weeks, Janvier Labs, Le Genest-Saint-Isle, France) were used for all experiments.
Mice were infected by intravenous application of the bacterial inoculum via the tail vein. Treatment started at 2 hours p.i. and following doses were applied every 12 hours. The vancomycin group received 30 mg/kg body weight/ per day, the FU002 group received 56.4 mg/kg body weight/per day, the control group received equal amounts of sterile PBS at the respective time points. The mice were […]

[3] = 125I-labeled compounds (FU002 as 125I-FU002y), 10 min post injection
[4] = 125I-labeled compounds (FU002 as D-Tyr derivative), 60 min post injection

Row | Structure (SMILES) | effect of D-Ala-D-Ala binding motif on antibiotic activity [1] | scintigraphy, distribution and excretion [2, 3] | scintigraphy, distribution and excretion [2, 4] | biodistribution, organ uptake ([2]; 125I-labeled, 10 min post injection, compared with vancomycin) | biodistribution, retention in organ ([2]; 125I-labeled, after 1 hour, compared with vancomycin) | PET imaging, distribution and excretion ([2]; 124I-labeled compounds, i.v. tail vein, 10 min post injection)
1 | CC(C)C[C@H](C(=O)N[C@H]1C(=O)N[C@@H](CC(N)=O)C(=O)N[C@H]2C(=O)N[C@H]3C(=O)N[C@H](C(=O)N[C@H](C(=O)O)c4cc(O)cc(O)c4-c4cc3ccc4O)[C@H](O)c3ccc(c(Cl)c3)Oc3cc2cc(c3O[C@@H]2O[C@H](CO)[C@@H](O)[C@H](O)[C@H]2O[C@H]2C[C@](C)(N)[C@H](O)[C@H](C)O2)Oc2ccc(cc2Cl)[C@H]1O)N(C)C(=O)C1CCC(CN2C(=O)CC(SC[C@H](NC(=O)[C@H](CCCNC(=N)N)NC(=O)[C@H](CCCNC(=N)N)NC(=O)[C@H](CCCNC(=N)N)NC(=O)[C@H](CCCNC(=N)N)NC(=O)[C@H](CCCNC(=N)N)NC(=O)[C@@H](N)CCCNC(=N)N)C(N)=O)C2=O)CC1 (stereo partly drawn) [FU002] | preserves its activity | directs in the liver and the kidneys | much slower excretion | much higher organ uptake | remains much longer in the corresponding organ | 
2 | CN[C@H](CC(C)C)C(=O)N[C@H]1C(=O)N[C@@H](CC(N)=O)C(=O)N[C@H]2C(=O)N[C@H]3C(=O)N[C@H](C(=O)N[C@H](C(=O)O)c4cc(O)cc(O)c4-c4cc3ccc4O)[C@H](O)c3ccc(c(Cl)c3)Oc3cc2cc(c3O[C@@H]2O[C@H](CO)[C@@H](O)[C@H](O)[C@H]2O[C@H]2C[C@](C)(N)[C@H](O)[C@H](C)O2)Oc2ccc(cc2Cl)[C@H]1O [vancomycin] | suppresses the antibiotic activity | fast, renal excretion | almost completely excreted and only found in the bladder |  |  | renal excretion
